Measurements: patent US9403806B1, “Cognition enhancing compounds and compositions, methods of making, and methods of treating” (NeuroSolis, Inc., priority 2010, dated 2016)

Legend:
[1] = in vitro; settings: PAMPA
[2] = rat, in vivo, po
[3] = biological target: T1, human FMO1 Supersomes (Homo sapiens, UniProt Q01740); assay: Metabolism by flavin monoxygenase 1 (FMO1) Supersomes; type: in vitro ADME; settings: after 6 hours (FIG. 2)
T1 construct: purchased BD Biosciences 456241
T1 sequence (Q01740 1-532): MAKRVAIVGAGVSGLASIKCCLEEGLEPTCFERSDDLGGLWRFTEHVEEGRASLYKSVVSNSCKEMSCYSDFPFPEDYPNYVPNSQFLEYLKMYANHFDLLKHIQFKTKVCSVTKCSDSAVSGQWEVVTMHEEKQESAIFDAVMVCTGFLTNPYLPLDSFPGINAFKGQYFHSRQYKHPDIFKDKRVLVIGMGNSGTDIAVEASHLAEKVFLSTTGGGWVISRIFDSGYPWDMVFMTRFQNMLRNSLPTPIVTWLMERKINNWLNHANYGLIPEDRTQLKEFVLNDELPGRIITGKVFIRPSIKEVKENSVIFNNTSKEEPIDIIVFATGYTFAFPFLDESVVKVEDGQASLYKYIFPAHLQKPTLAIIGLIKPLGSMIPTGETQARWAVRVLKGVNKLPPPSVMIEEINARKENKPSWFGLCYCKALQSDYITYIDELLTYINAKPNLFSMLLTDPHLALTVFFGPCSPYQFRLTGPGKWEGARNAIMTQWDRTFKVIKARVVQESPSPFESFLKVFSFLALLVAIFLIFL
Experimental: […] Aliquots were removed every 10 minutes, and 1% formic acid was added to halt the reaction. Samples were centrifuged, filtered through 0.2 micron spinfilter and the amount of each compound in the supernatants was quantitated using LC/MS/MS.

[4] = system: pooled male human liver microsomes; assay: Metabolism by human liver microsomes, Example 33; type: in vitro ADME; settings: 6 hours incubation (FIGS. 4A, 4B)
Experimental: Compounds were incubated with pooled male human liver microsomes (BD Biosciences, #452172) and an NADP-regenerating system in a phosphate buffer (pH 7.4) for a total of 6 hours. Aliquots were removed every 2 hours, and 1% formic acid was added to halt the reaction. Samples were centrifuged, filtered through 0.2 micron spinfilter and the amount of each compound in the supernatants was quantitated using LC/MS/MS.

[5] = biological target: T2, human muscarinic M1 receptors (Homo sapiens, UniProt P11229); assay: IP production in A9L cells with human M1 receptors (IPOne TR-FRET), Example 28; type: cell-based
T2 construct: host or cells: A9L cells
T2 sequence (P11229 1-460): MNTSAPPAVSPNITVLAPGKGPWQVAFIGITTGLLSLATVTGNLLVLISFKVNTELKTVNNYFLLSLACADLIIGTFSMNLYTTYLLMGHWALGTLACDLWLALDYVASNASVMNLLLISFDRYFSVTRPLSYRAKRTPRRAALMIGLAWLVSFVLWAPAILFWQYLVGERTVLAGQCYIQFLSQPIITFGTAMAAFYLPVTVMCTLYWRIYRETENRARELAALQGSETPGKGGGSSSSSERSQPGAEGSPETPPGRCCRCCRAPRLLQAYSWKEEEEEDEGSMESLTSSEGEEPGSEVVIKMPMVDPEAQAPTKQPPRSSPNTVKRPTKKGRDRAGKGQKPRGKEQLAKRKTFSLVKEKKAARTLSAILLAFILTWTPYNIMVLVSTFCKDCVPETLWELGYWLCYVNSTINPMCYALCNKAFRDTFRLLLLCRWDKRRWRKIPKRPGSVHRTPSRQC
Procedure, shortened: (§1)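 A9L cells transfected with human M1 or M3 receptors, exposed to compound in medium with 10 mM LiCl and 10 mM HEPES (pH 7.4) for 60 min at 37 °C. IP in lysates measured by IPOne TR-FRET; efficacy expressed relative to full agonist (100%).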

[6] = system: pooled male Sprague-Dawley rat liver microsomes; assay: Metabolism by rat liver microsomes; type: in vitro ADME; settings: 6 hours incubation (FIG. 3)
Experimental: Compounds were incubated with pooled male Sprague-Dawley rat liver microsomes (BD Biosciences, #452501) and an NADP-regenerating system in a phosphate buffer (pH 7.4) for a total of 6 hours. Aliquots were removed every 2 hours, and 1% formic acid was added to halt the reaction. Samples were centrifuged, filtered through 0.2 micron spinfilter and the amount of each compound in the supernatants was quantitated using LC/MS/MS.

[7] = PAMPA test, Example 34; settings: PAMPA
[8] = biological target: T3, human muscarinic M3 receptors (Homo sapiens, UniProt P20309); assay: IP production in A9L cells with human M3 receptors (IPOne TR-FRET), Example 28; type: cell-based
T3 construct: host or cells: A9L cells
T3 sequence (P20309 whole entry): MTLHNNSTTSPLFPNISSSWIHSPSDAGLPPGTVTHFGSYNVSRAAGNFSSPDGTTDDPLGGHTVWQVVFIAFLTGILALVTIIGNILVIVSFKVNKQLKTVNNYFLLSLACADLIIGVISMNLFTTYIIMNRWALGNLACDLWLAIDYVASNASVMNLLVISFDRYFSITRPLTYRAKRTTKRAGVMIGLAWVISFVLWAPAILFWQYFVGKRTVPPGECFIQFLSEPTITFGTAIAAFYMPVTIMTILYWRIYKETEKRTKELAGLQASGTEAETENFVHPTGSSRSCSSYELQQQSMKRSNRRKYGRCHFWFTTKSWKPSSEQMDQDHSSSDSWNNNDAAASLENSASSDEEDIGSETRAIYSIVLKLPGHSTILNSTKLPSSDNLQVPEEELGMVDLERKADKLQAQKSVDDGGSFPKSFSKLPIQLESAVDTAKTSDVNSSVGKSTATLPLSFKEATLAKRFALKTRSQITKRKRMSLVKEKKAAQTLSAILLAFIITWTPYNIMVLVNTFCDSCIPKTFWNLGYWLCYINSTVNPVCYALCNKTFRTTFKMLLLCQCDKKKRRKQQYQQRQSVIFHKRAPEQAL
Procedure, shortened: as §1

[9] = percentage of maximal stimulation by carbachol
[10] = potency relative to carbachol at its EC50, semi-quantitative

SMILES | Papp [1] | Brain/plasma ratio [2] | extent of metabolism in FMO Supersomes (in words) [3] | metabolism in human liver microsomes (in words) [4] | potency and efficacy at M1 muscarinic receptors (in words) ([5]; huM1/A9L) | selectivity between M1 and M3 receptors ([5]; huM1 versus huM3 A9L cells) | huM1/A9L Smax [5, 9] | huM1/A9L ED50 relative to CCh* [5, 10] | metabolism in rat liver microsomes (in words) [6] | Papp [7] | huM3/A9L Smax [8, 9] | huM3/A9L ED50 relative to CCh* [8, 10]
CNC(=C[N+](=O)[O-])NCCSCc1ccc(CN(C)C)o1 [Ranitidine] | 0.26 ×10⁻⁶ cm/s | Very low | – | – | – | – | – | – | – | – | – | –
Cc1noc(C2=CCCN(C)C2)n1 [Compound 36, 3-methyl-5-(1-methyl-1,2,5,6-tetrahydropyridin-3-yl)-1,2,4-oxadiazole] | – | – | almost completely metabolized | nearly completely metabolized | reasonable potency and efficacy | shows some selectivity for M1 versus M3 receptors | 72% | + (+ potency 2-10x CCh) | nearly completely metabolized | 12.8 ×10⁻⁶ cm/s | 39% | + (+ potency 2-10x CCh)
